Measured values published in patent US10011573B2, “Human androgen receptor DNA-binding domain (DBD) compounds as therapeutics and methods for their use” (The University of British Columbia, priority 2014, dated 2018).
“Also recorded” adds a separate entry of the source. Like-named read-outs stand apart in the source and are kept apart here.

Assays:
[1] = molecular target: AR ligand binding domain (LBD) (Homo sapiens, UniProt P10275); assay: Biolayer interferometry (BLI) assay, small molecule binding to AR
Description: 4. Biolayer interferometry (BLI) assay: The direct reversible interaction between small molecules and the AR was measured as previously described (Lack, Axerio-Cilies et al. 2011).

AR AF1 = assay: AF1 assay (CREB and Gal4 plasmid in PC3 cells); type: cell-based
Excerpt: As there are other known binding sites in AR including the hormone binding site (HBS), activation function-2 (AF2) site, binding function 3 (BF3) and N-terminal activation function-1 (AF1) site, we utilized other assays to rule out possible binding to those sites. […] Then we used an AF1 assay to measure whether the potency of this compound comes from the inhibition of AF1 transactivation.

LNCaP cells = assay: Cell viability (MTS) assay, LNCaP; type: cell-based, human; settings: 0.1 nM R1881
Description: (§1) 1. Cell Culture: LNCaP and PC3 human prostate cancer cells were obtained from American Type Culture Collection (ATCC, Manassas, Va.) and grown in RPMI 1640 medium supplemented with 5% fetal bovine serum (FBS) (Invitrogen). […]. All cells were maintained at 37° C. in 5% CO2.
(§2) 7. Cell viability assay: The PC3, LNCaP, and MDV3100-resistant cells were plated at 3,000 cells per well in RPMI 1640 containing 5% charcoal stripped serum (CSS) in a 96-well plate, treated with 0.1 nM R1881 and compounds (0-25 μM) for 96 hrs.

YFP-AR = molecular target: T1, YFP-AR (Homo sapiens, UniProt P10275); assay: Confocal microscopy of YFP-AR nuclear localization in PC3 cells; type: cell-based
T1 construct: plasmids encoding YFP-tagged full-length AR (yellow fluorescent protein, YFP-AR); expressed in transfected cells; host or cells: PC3
T1 sequence (P10275 1-920): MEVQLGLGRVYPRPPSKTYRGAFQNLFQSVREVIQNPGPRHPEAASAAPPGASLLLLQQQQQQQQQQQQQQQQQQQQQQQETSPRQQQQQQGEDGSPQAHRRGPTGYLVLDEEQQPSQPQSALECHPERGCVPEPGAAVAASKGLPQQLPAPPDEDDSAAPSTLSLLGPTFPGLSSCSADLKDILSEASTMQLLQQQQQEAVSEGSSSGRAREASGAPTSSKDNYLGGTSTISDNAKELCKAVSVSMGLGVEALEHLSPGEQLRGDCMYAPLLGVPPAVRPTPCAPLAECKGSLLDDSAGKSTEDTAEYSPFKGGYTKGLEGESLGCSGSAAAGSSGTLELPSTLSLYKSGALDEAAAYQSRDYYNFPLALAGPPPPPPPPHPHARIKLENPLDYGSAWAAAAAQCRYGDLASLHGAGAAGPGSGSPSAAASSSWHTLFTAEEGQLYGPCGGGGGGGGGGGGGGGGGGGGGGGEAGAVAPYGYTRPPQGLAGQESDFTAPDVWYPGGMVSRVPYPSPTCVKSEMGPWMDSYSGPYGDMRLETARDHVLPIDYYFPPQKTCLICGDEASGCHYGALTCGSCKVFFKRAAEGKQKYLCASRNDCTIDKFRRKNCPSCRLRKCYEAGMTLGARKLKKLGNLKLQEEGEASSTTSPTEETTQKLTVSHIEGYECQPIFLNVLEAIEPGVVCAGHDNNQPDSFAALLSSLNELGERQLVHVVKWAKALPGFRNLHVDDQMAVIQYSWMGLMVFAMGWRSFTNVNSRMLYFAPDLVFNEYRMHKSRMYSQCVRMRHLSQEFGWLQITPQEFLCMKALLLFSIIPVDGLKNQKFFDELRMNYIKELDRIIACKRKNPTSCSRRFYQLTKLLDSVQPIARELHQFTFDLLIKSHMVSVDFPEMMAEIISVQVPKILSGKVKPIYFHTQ
Description: Transfection of YFP-AR or YFP-V7 plasmids (100 ng per well) was performed using TT20 (3 μl) for 48 h. […] After aspiration of the media, cells were washed once with PBS and fixed in 4% paraformaldehyde overnight at 4° C., followed by mounting on charged cover slides using DAPI mount (Vector Laboratories).

AR-V7 = molecular target: T2, AR-V7 (Homo sapiens, UniProt P10275); assay: ARR3tk-luciferase reporter assay in PC3 cells, splice variant AR-V7; type: cell-based
T2 construct: expressed in transfected cells; host or cells: PC3
T2 sequence (P10275 1-644 isoform P10275-3): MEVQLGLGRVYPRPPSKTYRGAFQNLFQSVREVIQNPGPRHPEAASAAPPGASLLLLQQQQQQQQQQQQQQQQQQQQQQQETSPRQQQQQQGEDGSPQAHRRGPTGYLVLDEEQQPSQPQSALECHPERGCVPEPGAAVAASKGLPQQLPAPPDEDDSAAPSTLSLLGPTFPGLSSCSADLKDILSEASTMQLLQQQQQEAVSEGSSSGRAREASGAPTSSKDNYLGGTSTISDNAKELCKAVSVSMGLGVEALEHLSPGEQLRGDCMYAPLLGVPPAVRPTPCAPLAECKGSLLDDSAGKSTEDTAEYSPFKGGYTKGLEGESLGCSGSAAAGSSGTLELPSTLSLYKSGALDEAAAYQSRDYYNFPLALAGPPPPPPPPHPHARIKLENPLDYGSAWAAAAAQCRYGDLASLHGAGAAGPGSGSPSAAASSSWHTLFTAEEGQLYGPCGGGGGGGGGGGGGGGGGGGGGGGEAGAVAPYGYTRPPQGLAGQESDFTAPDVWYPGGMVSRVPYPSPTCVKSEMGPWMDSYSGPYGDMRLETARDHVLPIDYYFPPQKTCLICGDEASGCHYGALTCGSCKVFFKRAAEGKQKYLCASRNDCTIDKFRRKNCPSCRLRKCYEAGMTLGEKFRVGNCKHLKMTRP
Excerpt: Full-length human AR (hARWT) or splice variant (AR-V7) was encoded on a pcDNA3.1 expression plasmid.

[2] = tested on: MDV3100-resistant LNCaP cells (MR49F); assay: Cell viability (MTS) assay, MDV3100 (Enzalutamide)-resistant cells; type: cell-based, human; settings: 0.1 nM R1881
Description: as §1, §2

AR Y594A mutant = AR Y594A mutant (Homo sapiens, UniProt P10275, Y594A); assay: ARR3tk-luciferase reporter assay in PC3 cells, AR Y594A
Sequence of AR Y594A mutant (P10275 whole entry Y594A): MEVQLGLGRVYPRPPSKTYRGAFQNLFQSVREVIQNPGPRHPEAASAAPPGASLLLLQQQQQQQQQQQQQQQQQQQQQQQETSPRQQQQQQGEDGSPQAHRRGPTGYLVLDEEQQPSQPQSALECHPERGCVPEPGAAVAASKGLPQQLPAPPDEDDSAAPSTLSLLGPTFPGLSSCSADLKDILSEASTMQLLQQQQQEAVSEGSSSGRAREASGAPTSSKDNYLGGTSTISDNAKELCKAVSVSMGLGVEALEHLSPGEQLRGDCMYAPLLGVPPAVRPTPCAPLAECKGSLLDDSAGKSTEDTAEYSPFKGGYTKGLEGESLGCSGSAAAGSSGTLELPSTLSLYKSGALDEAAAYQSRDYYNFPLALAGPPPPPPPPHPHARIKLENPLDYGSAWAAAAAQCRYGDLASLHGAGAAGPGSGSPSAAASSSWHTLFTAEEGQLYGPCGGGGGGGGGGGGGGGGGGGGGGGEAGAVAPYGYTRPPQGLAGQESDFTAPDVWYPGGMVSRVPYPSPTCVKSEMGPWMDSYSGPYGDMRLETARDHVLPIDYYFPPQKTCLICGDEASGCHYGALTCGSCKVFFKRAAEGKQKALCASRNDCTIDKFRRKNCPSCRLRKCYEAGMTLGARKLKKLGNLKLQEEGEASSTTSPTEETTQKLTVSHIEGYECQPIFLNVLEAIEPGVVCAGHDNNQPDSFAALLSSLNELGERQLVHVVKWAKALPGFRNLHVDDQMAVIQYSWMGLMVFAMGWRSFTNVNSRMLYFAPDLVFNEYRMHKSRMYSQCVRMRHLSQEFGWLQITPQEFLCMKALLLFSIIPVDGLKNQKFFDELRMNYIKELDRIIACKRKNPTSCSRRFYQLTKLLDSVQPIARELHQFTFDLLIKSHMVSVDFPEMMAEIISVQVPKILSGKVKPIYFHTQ

AR AF2 site = AR AF2 site (Homo sapiens, UniProt P10275); assay: SRC2-3 peptide displacement assay (fluorescence polarization); type: binding
Description: 6. SRC2-3 peptide displacement assay: The AR AF2 specific peptide displacement was assayed as previously described.

[3] = molecular target: T3, AR hormone binding site (recombinant wild type LBD) (Rattus norvegicus, UniProt P15207); assay: Androgen displacement assay (Polar Screen Androgen Receptor Competitor Green Assay Kit)
T3 construct: displace DHT from the ABS site of recombinant wild type LBD
T3 sequence (P15207 651-882 limits assumed): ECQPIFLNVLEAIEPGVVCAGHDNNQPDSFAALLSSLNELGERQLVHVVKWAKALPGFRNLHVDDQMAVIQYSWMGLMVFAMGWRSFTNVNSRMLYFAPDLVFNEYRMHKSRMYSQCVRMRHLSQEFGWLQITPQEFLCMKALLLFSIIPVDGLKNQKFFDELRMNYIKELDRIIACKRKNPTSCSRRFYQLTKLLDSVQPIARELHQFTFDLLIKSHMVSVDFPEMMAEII
Description: 5. Androgen displacement assay: The androgen displacement was assessed with the Polar Screen Androgen Receptor Competitor Green Assay Kit as per the instructions of the manufacturer (Lack, Axerio-Cilies et al. 2011).
The ability of the above chemicals to displace DHT from the ABS site of recombinant wild type LBD was measured using a fluorescent polarization assay (PolarScreen™, Life Technologies) at various concentrations.

Stability in media = type: physicochemical
LNCaP xenograft = assay: Castration-resistant LNCaP xenografts in mice; settings: 100 mg/kg i.p. twice daily, 4 weeks
AR target genes = assay: Microarray genetic profile in LNCaP cells

Structure (SMILES): c1ccc(-c2csc(N3CCOCC3)n2)cc1 [Compound 14228, 4-(4-phenylthiazol-2-yl)morpholine]
- binding in the C-terminal LBD (BLI) [1]: no binding
- inhibition of CREB and Gal4 (AF1) (AR AF1): no inhibition
- inhibition of cell growth, LNCaP (LNCaP cells): strongly inhibits
- R1881-stimulated nuclear localization of YFP-AR (YFP-AR): did not prevent R1881-stimulated nuclear localization
- nuclear localization of YFP-AR in the absence of R1881 (YFP-AR): could not stimulate any nuclear localization
- inhibition of AR-V7 transcriptional activity (AR-V7): reduced with increasing concentrations; also recorded: inhibit the transcription of AR-V7 in a concentration-dependent manner
- inhibition of cell growth, MDV3100/Enzalutamide-resistant cells [2]: strongly inhibits
- IC50 (AR Y594A mutant): 3 to 6 µM
- displacement of peptide in the AF2 binding site (AR AF2 site): Neither does it displace the peptide
- androgen displacement from AR HBS [3]: does not displace androgen

Structure (SMILES): Brc1ncn(-c2csc(N3CCOCC3)n2)c1Br [Compound 14449]
- inhibition of cell growth, LNCaP (LNCaP cells): concentration-dependent inhibition of the cell growth
- stability in media (Stability in media): fully stable in media
- toxic effect on animals (LNCaP xenograft): no observable toxic effect
- LNCaP xenograft tumor volume (LNCaP xenograft; castrated mice, 100 mg/kg): reduces tumor volume; also recorded: inhibited to levels comparable with enzalutamide treatment
- serum PSA (LNCaP xenograft; castrated mice, 100 mg/kg): abolishes PSA production; also recorded: inhibited to levels comparable with enzalutamide treatment
- R1881-stimulated nuclear localization of YFP-AR (YFP-AR; 10 nM R1881, 25 μM compound, 6 h): did not prevent R1881-stimulated nuclear localization
- nuclear localization of YFP-AR in the absence of R1881 (YFP-AR; 25 μM compound): could not stimulate any nuclear localization
- inhibition of AR-V7 transcriptional activity (AR-V7; PC3 cells, no R1881): reduced with increasing concentrations; also recorded: inhibit the transcription of AR-V7 in a concentration-dependent manner
- IC50 (AR Y594A mutant): 3 to 6 µM
- change of expression of genotoxin-responsive genes (AR target genes; 31 genes): None of the genotoxin-responsive genes showed any significant change
- FKBP5 gene expression fold change vs R1881 treatment only (AR target genes; 14449 400 nM + 1 nM R1881, 24 h, p 0.08): 0.81
- ATF3 gene expression fold change (AR target genes; 14449 400 nM + R1881): 0.99
- CASP1 gene expression fold change (AR target genes; 14449 400 nM + R1881): 1.00
- XPC gene expression fold change (AR target genes; 14449 400 nM + R1881): 1.03
